Experimental data as given in ChEMBL document CHEMBL1151939, “Potential scorpionate antibiotics: targeted hydrolysis of lipid II containing model membranes by vancomycin-TACzyme conjugates and modulation of their antibacterial activity by Zn-ions” (2009).
≈ marks a conversion by molar mass, not a printed value. Calls of active or inactive are those of the source. The rule behind the calls is not given here.

Assays:
Format in all cases: functional
[1] = test system: Enterococcus; test: Antimicrobial activity against vancomycin-susceptible Enterococcus 15A797 by broth microdilution method in presence of ZnSo4 in medium
[2] = test system: Enterococcus; test: Antimicrobial activity against vancomycin-susceptible Enterococcus 15A797 by broth microdilution method
[3] = test system: Enterococcus; test: Antimicrobial activity against vancomycin-resistant Enterococcus 15A799 by broth microdilution method
[4] = test system: Enterococcus; test: Antimicrobial activity against vancomycin-resistant Enterococcus 15A799 by broth microdilution method in presence of ZnSo4 in medium

SMILES	MIC [1]	MIC [2] [µM]	MIC [3]	MIC [4]
CN[C@H](CC(C)C)C(=O)N[C@H]1C(=O)N[C@@H](CC(N)=O)C(=O)N[C@H]2C(=O)N[C@H]3C(=O)N[C@H](C(=O)N[C@H](C(=O)NCCCOCCOCCOCCNC(=O)c4cc(OCCNC(=O)c5cc(OCc6cn(CCCNC(=O)CC[C@H](NC(=O)c7cc8cc(c7)CN(C(=O)[C@@H](Cc7c[nH]cn7)NC(C)=O)CCCN(C(=O)[C@H](Cc7c[nH]cn7)NC(C)=O)CCCN(C(=O)[C@H](Cc7c[nH]cn7)NC(C)=O)C8)C(N)=O)nn6)cc(OCc6cn(CCCNC(=O)CC[C@H](NC(=O)c7cc8cc(c7)CN(C(=O)[C@@H](Cc7c[nH]cn7)NC(C)=O)CCCN(C(=O)[C@H](Cc7c[nH]cn7)NC(C)=O)CCCN(C(=O)[C@H](Cc7c[nH]cn7)NC(C)=O)C8)C(N)=O)nn6)c5)cc(OCCNC(=O)c5cc(OCc6cn(CCCNC(=O)CC[C@H](NC(=O)c7cc8cc(c7)CN(C(=O)[C@@H](Cc7c[nH]cn7)NC(C)=O)CCCN(C(=O)[C@H](Cc7c[nH]cn7)NC(C)=O)CCCN(C(=O)[C@H](Cc7c[nH]cn7)NC(C)=O)C8)C(N)=O)nn6)cc(OCc6cn(CCCNC(=O)CC[C@H](NC(=O)c7cc8cc(c7)CN(C(=O)[C@@H](Cc7c[nH]cn7)NC(C)=O)CCCN(C(=O)[C@H](Cc7c[nH]cn7)NC(C)=O)CCCN(C(=O)[C@H](Cc7c[nH]cn7)NC(C)=O)C8)C(N)=O)nn6)c5)c4)c4cc(O)cc(O)c4-c4cc3ccc4O)[C@H](O)c3ccc(c(Cl)c3)Oc3cc2cc(c3O[C@@H]2O[C@H](CO)[C@@H](O)[C@H](O)[C@H]2O[C@H]2C[C@](C)(N)[C@H](O)[C@H](C)O2)Oc2ccc(cc2Cl)[C@H]1O	5 µM	40 (≈ 255 µg/mL)	inactive	inactive
CC(=O)N[C@@H](Cc1c[nH]cn1)C(=O)N1CCCN(C(=O)[C@H](Cc2c[nH]cn2)NC(C)=O)Cc2cc(cc(C(=O)N[C@@H](CCC(=O)NCCCN=[N+]=[N-])C(N)=O)c2)CN(C(=O)[C@@H](Cc2c[nH]cn2)NC(C)=O)CCC1	inactive			inactive
C#CCCC(=O)NCCCOCCOCCOCCCNC(=O)[C@H]1NC(=O)[C@H]2NC(=O)[C@H](NC(=O)[C@@H]3NC(=O)[C@H](CC(N)=O)NC(=O)[C@H](NC(=O)[C@@H](CC(C)C)NC)[C@H](O)c4ccc(c(Cl)c4)Oc4cc3cc(c4O[C@@H]3O[C@H](CO)[C@@H](O)[C@H](O)[C@H]3O[C@H]3C[C@](C)(N)[C@H](O)[C@H](C)O3)Oc3ccc(cc3Cl)[C@H]2O)c2ccc(O)c(c2)-c2c(O)cc(O)cc21		1 (≈ 1.73 µg/mL)	inactive	
CN[C@H](CC(C)C)C(=O)N[C@H]1C(=O)N[C@@H](CC(N)=O)C(=O)N[C@H]2C(=O)N[C@H]3C(=O)N[C@H](C(=O)N[C@H](C(=O)NCCCOCCOCCOCCCNC(=O)CCc4cn(CCCNC(=O)CC[C@H](NC(=O)c5cc6cc(c5)CN(C(=O)[C@@H](Cc5c[nH]cn5)NC(C)=O)CCCN(C(=O)[C@H](Cc5c[nH]cn5)NC(C)=O)CCCN(C(=O)[C@H](Cc5c[nH]cn5)NC(C)=O)C6)C(N)=O)nn4)c4cc(O)cc(O)c4-c4cc3ccc4O)[C@H](O)c3ccc(c(Cl)c3)Oc3cc2cc(c3O[C@@H]2O[C@H](CO)[C@@H](O)[C@H](O)[C@H]2O[C@H]2C[C@](C)(N)[C@H](O)[C@H](C)O2)Oc2ccc(cc2Cl)[C@H]1O	2.9 µM	5.8 (≈ 16 µg/mL)	inactive	92.8 µM
CN[C@H](CC(C)C)C(=O)N[C@H]1C(=O)N[C@@H](CC(N)=O)C(=O)N[C@H]2C(=O)N[C@H]3C(=O)N[C@H](C(=O)N[C@H](C(=O)O)c4cc(O)cc(O)c4-c4cc3ccc4O)[C@H](O)c3ccc(c(Cl)c3)Oc3cc2cc(c3O[C@@H]2O[C@H](CO)[C@@H](O)[C@H](O)[C@H]2O[C@H]2C[C@](C)(N)[C@H](O)[C@H](C)O2)Oc2ccc(cc2Cl)[C@H]1O [VANCOMYCIN]		0.3 (≈ 0.435 µg/mL)	86 µM (≈ 125 µg/mL)	
COC(=O)c1cc(OCCNC(=O)c2cc(OCc3cn(CCCNC(=O)CC[C@H](NC(=O)c4cc5cc(c4)CN(C(=O)[C@H](Cc4c[nH]cn4)NC(C)=O)CCCN(C(=O)[C@H](Cc4c[nH]cn4)NC(C)=O)CCCN(C(=O)[C@H](Cc4c[nH]cn4)NC(C)=O)C5)C(N)=O)nn3)cc(OCc3cn(CCCNC(=O)CC[C@H](NC(=O)c4cc5cc(c4)CN(C(=O)[C@H](Cc4c[nH]cn4)NC(C)=O)CCCN(C(=O)[C@H](Cc4c[nH]cn4)NC(C)=O)CCCN(C(=O)[C@H](Cc4c[nH]cn4)NC(C)=O)C5)C(N)=O)nn3)c2)cc(OCCNC(=O)c2cc(OCc3cn(CCCNC(=O)CC[C@@H](NC(=O)c4cc5cc(c4)CN(C(=O)[C@H](Cc4c[nH]cn4)NC(C)=O)CCCN(C(=O)[C@@H](Cc4c[nH]cn4)NC(C)=O)CCCN(C(=O)[C@H](Cc4c[nH]cn4)NC(C)=O)C5)C(N)=O)nn3)cc(OCc3cn(CCCNC(=O)CC[C@@H](NC(=O)c4cc5cc(c4)CN(C(=O)[C@H](Cc4c[nH]cn4)NC(C)=O)CCCN(C(=O)[C@@H](Cc4c[nH]cn4)NC(C)=O)CCCN(C(=O)[C@H](Cc4c[nH]cn4)NC(C)=O)C5)C(N)=O)nn3)c2)c1	inactive			inactive
C#CCOc1cc(OCC#C)cc(C(=O)NCCOc2cc(OCCNC(=O)c3cc(OCC#C)cc(OCC#C)c3)cc(C(=O)NCCCOCCOCCOCCCNC(=O)[C@H]3NC(=O)[C@H]4NC(=O)[C@H](NC(=O)[C@@H]5NC(=O)[C@H](CC(N)=O)NC(=O)[C@H](NC(=O)[C@@H](CC(C)C)NC)[C@H](O)c6ccc(c(Cl)c6)Oc6cc5cc(c6O[C@@H]5O[C@H](CO)[C@@H](O)[C@H](O)[C@H]5O[C@H]5C[C@](C)(N)[C@H](O)[C@H](C)O5)Oc5ccc(cc5Cl)[C@H]4O)c4ccc(O)c(c4)-c4c(O)cc(O)cc43)c2)c1		1.6 (≈ 3.68 µg/mL)	3.2 µM (≈ 7.35 µg/mL)	
